Values of other authors as cited in article PMC10289903 (Investigational New Drugs, 2023).

System: platinum-resistant or platinum-refractory recurrent ovarian cancer
Settings: placebo plus gemcitabine arm; 95% CI 1.8–3.8; cited from earlier work

Structure (SMILES): Nc1ccn([C@@H]2O[C@H](CO)[C@@H](O)C2(F)F)c(=O)n1 [gemcitabine, reference compound]
- PFS: 3.0 months
